# Experimental data as given in patent publication US20240216369A1, “THE USE OF A SPLICING MODULATOR FOR A TREATMENT SLOWING PROGRESSION OF HUNTINGTON'S DISEASE” (Novartis AG, priority 2019, published 2024).
# How the values were obtained:
# mHTT = experiment: Mutant and total HTT multiplex HTRF assay in Q48 HTT human embryonic stem cell line: mHTT; format: cell-based; details: Q48 HTT hESC, 48 hours
# Method: (§1) The multiplex assay is performed in human embryonic stem cells (hESCs) which have been derived by Genea Biocells from human blastocysts of HD donors. Cells are plated at a density of 10,000 cells/well into 384-well collagen coated plates and left to adhere for 24 hours, compounds 1 to 82 are then added to cells and incubated for 48 hours (37° C., 5% CO2), cells are then lysed and the contents split into a black 384-well plate.
# (§2) The black plates have a combination of HTRF labeled monoclonal antibodies added which recognize discrete areas of the HTT protein, the 2B7-Tb “donor” antibody (0.2 ng/well) recognizes a sequence at the N-terminus of the protein, an MW1-Alexa488 “acceptor 1” antibody (30 ng/well) recognizes an area in the polyQ region, whereas a MAB2166-d2 “acceptor 2” antibody (6 ng/well) recognizes a sequence beyond the polyQ region. The 2B7 antibody was obtained from Coriell (CH02024), the MW1 antibody from Millipore (MABN2427), and the MAB2166 antibody from Millipore (1HU-4C8).
# (§3) These detection reagents are incubated with the cell lysate at room temperature for 4-6 hours before having their fluorescence quantified at 615 nm (donor) and 535 nm and 665 nm (acceptor 1 and 2 respectively). The donor/acceptor ratio between these signals indicates the relative quantities of mHTT and tHTT proteins. As shown in the Table 1, compounds 1 to 82 as described therein and in Table 2, had the following pIC50 values.
# tHTT = experiment: Mutant and total HTT multiplex HTRF assay in Q48 HTT human embryonic stem cell line: tHTT; format: cell-based; details: Q48 HTT hESC, 48 hours
# Method: as §1, §2, §3
compound,measurement,setting,value
"COc1ccnc2cc(-c3ccc(N(C)C4CC(C)(C)NC(C)(C)C4)nn3)c(O)cc12 [Compound 50, 4-methoxy-7-(6-(methyl(2,2,6,6-tetramethylpiperidin-4-yl)amino)pyridazin-3-yl)quinolin-6-ol]",Rating (based on mHTT potency),mHTT,*** (a pIC50 value between 6.5 and 7.0 is indicated by three stars (***))
same,mHTT pIC50,mHTT,6.8055
same,tHTT pIC50,tHTT,6.7835
"CN(c1nnc(-c2cc3c(cc2O)C(=O)CC3)s1)C1CC(C)(C)NC(C)(C)C1 [Compound 78, 6-hydroxy-5-(5-(methyl(2,2,6,6-tetramethylpiperidin-4-yl)amino)-1,3,4-thiadiazol-2-yl)-2,3-dihydro-1H-inden-1-one]",Rating (based on mHTT potency),mHTT,** (a pIC50 value between 6 and 6.5 is indicated by two stars (**))
same,mHTT pIC50,mHTT,6.264
same,tHTT pIC50,tHTT,6.152
"Cc1cc(C2CC2)c2cc(-c3ccc(N(C)C4CC(C)(C)NC(C)(C)C4)nn3)c(O)cc2n1 [Compound 53, 4-cyclopropyl-2-methyl-6-(6-(methyl(2,2,6,6-tetramethylpiperidin-4-yl)amino)pyridazin-3-yl)quinolin-7-ol]",Rating (based on mHTT potency),mHTT,*** (a pIC50 value between 6.5 and 7.0 is indicated by three stars (***))
same,mHTT pIC50,mHTT,6.746
same,tHTT pIC50,tHTT,6.7095
"CN(c1nnc(-c2cc3cc(C#N)ccc3s2)s1)C1CC(C)(C)NC(C)(C)C1 [Compound 77, 2-(5-(methyl(2,2,6,6-tetramethylpiperidin-4-yl)amino)-1,3,4-thiadiazol-2-yl)benzo[b]thiophene-5-carbonitrile]",Rating (based on mHTT potency),mHTT,** (a pIC50 value between 6 and 6.5 is indicated by two stars (**))
same,mHTT pIC50,mHTT,6.137
same,tHTT pIC50,tHTT,6.1615
"CN(c1ccc(-c2cc3ccccc3cc2O)nn1)C1CC(C)(C)NC(C)(C)C1 [Compound 41, 3-(6-(methyl(2,2,6,6-tetramethylpiperidin-4-yl)amino)pyridazin-3-yl)naphthalen-2-ol]",Rating (based on mHTT potency),mHTT,*** (a pIC50 value between 6.5 and 7.0 is indicated by three stars (***))
same,mHTT pIC50,mHTT,6.923
same,tHTT pIC50,tHTT,6.8125
"Oc1ccc2cc(-c3ccc(C4CCNCC4)nn3)c(O)cc2c1 [Compound 71, 3-(6-(piperidin-4-yl)pyridazin-3-yl)naphthalene-2,7-diol]",Rating (based on mHTT potency),mHTT,* (a pIC50 value between 5 and 6 is indicated by a single star (*))
same,mHTT pIC50,mHTT,5.996
same,tHTT pIC50,tHTT,5.997
"Cc1nc(-c2ccc(-c3ccc(N(C)C4CC(C)(C)NC(C)(C)C4)nn3)c(O)c2)c[nH]1 [Compound 59, 2-(6-(methyl(2,2,6,6-tetramethylpiperidin-4-yl)amino)pyridazin-3-yl)-5-(2-methyl-1H-imidazol-4-yl)phenol]",Rating (based on mHTT potency),mHTT,*** (a pIC50 value between 6.5 and 7.0 is indicated by three stars (***))
same,mHTT pIC50,mHTT,6.678
same,tHTT pIC50,tHTT,6.5065
"CN1C[C@@H]2CN(c3ccc(-c4ccc(-c5cn[nH]c5)cc4O)nn3)C[C@@H]2C1 [Compound 32, 2-(6-((3aR,6aS)-5-methylhexahydropyrrolo[3,4-c]pyrrol-2(1H)-yl)pyridazin-3-yl)-5-(1H-pyrazol-4-yl)phenol]",Rating (based on mHTT potency),mHTT,**** (a pIC50 value between 7.0 and 7.5 is indicated by four stars (****))
same,mHTT pIC50,mHTT,7.0085
same,tHTT pIC50,tHTT,7.0625
"Oc1cc(-c2cn[nH]c2)cc(F)c1-c1nnc(N2C[C@H]3CNC[C@H]3C2)s1 [Compound 27, 3-fluoro-2-(5-((3aR,6aS)-hexahydropyrrolo[3,4-c]pyrrol-2(1H)-yl)-1,3,4-thiadiazol-2-yl)-5-(1H-pyrazol-4-yl)phenol]",Rating (based on mHTT potency),mHTT,**** (a pIC50 value between 7.0 and 7.5 is indicated by four stars (****))
same,mHTT pIC50,mHTT,7.1125
same,tHTT pIC50,tHTT,7.085
"CN(c1ccc(-c2ccc(-c3ccn(C4CC4)c(=O)c3)cc2O)nn1)C1CC(C)(C)NC(C)(C)C1 [Compound 26, 1-cyclopropyl-4-(3-hydroxy-4-(6-(methyl(2,2,6,6-tetramethylpiperidin-4-yl)amino)pyridazin-3-yl)phenyl)pyridin-2(1H)-one]",Rating (based on mHTT potency),mHTT,**** (a pIC50 value between 7.0 and 7.5 is indicated by four stars (****))
same,mHTT pIC50,mHTT,7.1215
same,tHTT pIC50,tHTT,7.0435
"CN(c1nnc(-c2ccc(-c3cn[nH]c3)cc2F)s1)C1CC(C)(C)NC(C)(C)C1 [Compound 76, 5-(2-fluoro-4-(1H-pyrazol-4-yl)phenyl)-N-methyl-N-(2,2,6,6-tetramethylpiperidin-4-yl)-1,3,4-thiadiazol-2-amine]",Rating (based on mHTT potency),mHTT,** (a pIC50 value between 6 and 6.5 is indicated by two stars (**))
same,mHTT pIC50,mHTT,6.0645
same,tHTT pIC50,tHTT,6.075
"COc1ccc(-c2ccc(-c3ccc(N(C)C4CC(C)(C)NC(C)(C)C4)nn3)c(O)c2)cn1 [Compound 67, 5-(6-methoxypyridin-3-yl)-2-(6-(methyl(2,2,6,6-tetramethylpiperidin-4-yl)amino)pyridazin-3-yl)phenol]",Rating (based on mHTT potency),mHTT,*** (a pIC50 value between 6.5 and 7.0 is indicated by three stars (***))
same,mHTT pIC50,mHTT,6.547
same,tHTT pIC50,tHTT,6.452
"CC1(C)CC(Oc2ccc(-c3ccc(-n4cccn4)cc3O)nn2)CCN1 (stereo not drawn) [Compound 72, 2-(6-((2,2-dimethylpiperidin-4-yl)oxy)pyridazin-3-yl)-5-(1H-pyrazol-1-yl)phenol]",Rating (based on mHTT potency),mHTT,** (a pIC50 value between 6 and 6.5 is indicated by two stars (**))
same,mHTT pIC50,mHTT,6.21
same,tHTT pIC50,tHTT,6.13
"CN(c1ccc(-c2cc(Cl)c(-c3cn[nH]c3)cc2O)nn1)C1CC(C)(C)NC(C)(C)C1 [Compound 14, 4-chloro-2-(6-(methyl(2,2,6,6-tetramethylpiperidin-4-yl)amino)pyridazin-3-yl)-5-(1H-pyrazol-4-yl)phenol]",Rating (based on mHTT potency),mHTT,**** (a pIC50 value between 7.0 and 7.5 is indicated by four stars (****))
same,mHTT pIC50,mHTT,7.35
same,tHTT pIC50,tHTT,7.389
"Cc1cc(-c2ccc(-c3nnc(N(C)C4CC(C)(C)NC(C)(C)C4)s3)c(F)c2)[nH]n1 [Compound 79, 5-(2-fluoro-4-(3-methyl-1H-pyrazol-5-yl)phenyl)-N-methyl-N-(2,2,6,6-tetramethylpiperidin-4-yl)-1,3,4-thiadiazol-2-amine]",Rating (based on mHTT potency),mHTT,* (a pIC50 value between 5 and 6 is indicated by a single star (*))
same,mHTT pIC50,mHTT,5.9315
same,tHTT pIC50,tHTT,6.01
"CN(c1nnc(-c2ccc(-c3ccc(=O)n(C)c3)cc2O)s1)C1CC(C)(C)NC(C)(C)C1 [Compound 6, 5-(3-hydroxy-4-(5-(methyl(2,2,6,6-tetramethylpiperidin-4-yl)amino)-1,3,4-thiadiazol-2-yl)phenyl)-1-methylpyridin-2(1H)-one]",Rating (based on mHTT potency),mHTT,***** (a pIC50 value above 7.5 is indicated by five stars (*****))
same,mHTT pIC50,mHTT,7.585
same,tHTT pIC50,tHTT,7.493
"CN(c1ccc(-c2ccc(-n3ccc(N)n3)cc2O)nn1)C1CC(C)(C)NC(C)(C)C1 [Compound 4, 5-(3-amino-1H-pyrazol-1-yl)-2-(6-(methyl(2,2,6,6-tetramethylpiperidin-4-yl)amino)pyridazin-3-yl)phenol]",Rating (based on mHTT potency),mHTT,***** (a pIC50 value above 7.5 is indicated by five stars (*****))
same,mHTT pIC50,mHTT,7.6
same,tHTT pIC50,tHTT,7.5845
"CC1(C)CC(Nc2ccc(-c3ccc(-n4cccn4)cc3O)nn2)CC(C)(C)N1 [Compound 12, 5-(1H-pyrazol-1-yl)-2-(6-((2,2,6,6-tetramethylpiperidin-4-yl)amino)pyridazin-3-yl)phenol]",Rating (based on mHTT potency),mHTT,**** (a pIC50 value between 7.0 and 7.5 is indicated by four stars (****))
same,mHTT pIC50,mHTT,7.379
same,tHTT pIC50,tHTT,7.2825
"CN(c1ccc(-c2cc3ncccc3cc2O)nn1)C1CC(C)(C)NC(C)(C)C1 [Compound 31, 7-(6-(methyl(2,2,6,6-tetramethylpiperidin-4-yl)amino)pyridazin-3-yl)quinolin-6-ol]",Rating (based on mHTT potency),mHTT,**** (a pIC50 value between 7.0 and 7.5 is indicated by four stars (****))
same,mHTT pIC50,mHTT,7.0275
same,tHTT pIC50,tHTT,7.0015
"CC1(C)CC(Oc2ccc(-c3ccc(-n4cccn4)cc3O)nn2)CC(C)(C)N1 [Compound 34, 5-(1H-pyrazol-1-yl)-2-(6-(2,2,6,6-tetramethylpiperidin-4-yloxy)pyridazin-3-yl)phenol]",Rating (based on mHTT potency),mHTT,**** (a pIC50 value between 7.0 and 7.5 is indicated by four stars (****))
same,mHTT pIC50,mHTT,7.004
same,tHTT pIC50,tHTT,6.9475
